Experimental data as given in US20240101576A1, “HETEROCYCLIC INHIBITORS OF EGFR AND/OR HER2, FOR USE IN THE TREATMENT OF CANCER” (Scorpion Therapeutics, Inc., priority 2020, published 2024).

What was measured:
Assay type in all cases: cell-based
[1] = target: T1, EGFR L858R (Ba/F3 cells) (Homo sapiens, UniProt P00533, L858R); test: Inhibitor activity on EGFR-dependent cell growth (CellTiter-Glo, 72 h), Ba/F3 EGFR L858R; conditions: read-out: BaF3 L858R IC50
T1 construct: expressed in transfected cells; host or cells: Ba/F3 (murine pro-B cells), retroviral transduction, puromycin selection, IL3-independent pool
Summary of the method: (§1)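 Ba/F3, retrovirally transduced, puromycin-selected, grown without IL3; cells/well: L858R 400, L858R/C797S 600, exon 19del 800, FQEA 800. Cpds from 10 mM DMSO stock, 3-fold ×10 dilution, 120 nL per well; 72 h. CTG readout; IC50 via Hill equation.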

[2] = target: T2, EGFR exon 19del (Ba/F3 cells) (Homo sapiens, UniProt P00533); test: Inhibitor activity on EGFR-dependent cell growth (CellTiter-Glo, 72 h), Ba/F3 EGFR exon 19del; conditions: Ba/F3 EGFR exon 19del cell growth, read-out: BaF3 Del19 IC50
T2 sequence (P00533 with tags, fused parts or gaps DEL746-750): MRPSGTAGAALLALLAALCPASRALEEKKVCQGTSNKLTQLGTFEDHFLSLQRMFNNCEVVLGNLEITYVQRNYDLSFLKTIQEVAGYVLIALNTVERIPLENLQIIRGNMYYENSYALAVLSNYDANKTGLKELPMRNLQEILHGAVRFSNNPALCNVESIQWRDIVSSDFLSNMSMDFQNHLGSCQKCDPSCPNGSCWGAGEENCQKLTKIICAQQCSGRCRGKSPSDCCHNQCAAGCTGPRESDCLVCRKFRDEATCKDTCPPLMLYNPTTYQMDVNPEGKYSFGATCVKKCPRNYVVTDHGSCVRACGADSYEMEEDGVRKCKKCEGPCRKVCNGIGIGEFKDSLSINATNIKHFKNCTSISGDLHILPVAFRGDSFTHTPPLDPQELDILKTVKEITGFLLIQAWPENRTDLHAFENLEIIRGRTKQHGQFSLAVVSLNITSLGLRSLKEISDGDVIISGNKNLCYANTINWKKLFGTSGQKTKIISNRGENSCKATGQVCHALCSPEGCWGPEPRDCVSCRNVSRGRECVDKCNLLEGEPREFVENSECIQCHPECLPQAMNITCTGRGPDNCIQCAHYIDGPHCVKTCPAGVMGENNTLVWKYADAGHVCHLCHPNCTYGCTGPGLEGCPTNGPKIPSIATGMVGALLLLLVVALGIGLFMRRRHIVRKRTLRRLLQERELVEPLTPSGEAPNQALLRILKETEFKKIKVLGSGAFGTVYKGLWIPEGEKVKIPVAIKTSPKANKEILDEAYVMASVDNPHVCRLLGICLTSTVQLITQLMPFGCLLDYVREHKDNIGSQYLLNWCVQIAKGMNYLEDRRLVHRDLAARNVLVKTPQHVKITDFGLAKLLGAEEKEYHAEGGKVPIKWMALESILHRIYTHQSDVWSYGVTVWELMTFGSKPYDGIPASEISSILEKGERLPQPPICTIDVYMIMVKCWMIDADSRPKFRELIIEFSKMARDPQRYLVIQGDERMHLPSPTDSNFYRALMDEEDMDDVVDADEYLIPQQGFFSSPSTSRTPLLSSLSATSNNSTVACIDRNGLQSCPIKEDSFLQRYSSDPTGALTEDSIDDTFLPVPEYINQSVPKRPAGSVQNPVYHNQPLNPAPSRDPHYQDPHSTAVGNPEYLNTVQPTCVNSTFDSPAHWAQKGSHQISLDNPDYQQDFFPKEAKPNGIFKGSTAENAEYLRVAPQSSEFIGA
Summary of the method: as §1

[3] = target: T3, EGFR L858R/C797S (Ba/F3 cells) (Homo sapiens, UniProt P00533, C797S/L858R); test: Inhibitor activity on EGFR-dependent cell growth (CellTiter-Glo, 72 h), Ba/F3 EGFR L858R/C797S; conditions: read-out: BaF3 L858R/C797S IC50
T3 construct: expressed in transfected cells; host or cells: Ba/F3 (murine pro-B cells), retroviral transduction, puromycin selection, IL3-independent pool
T3 sequence (P00533 25-1210 C797S/L858R): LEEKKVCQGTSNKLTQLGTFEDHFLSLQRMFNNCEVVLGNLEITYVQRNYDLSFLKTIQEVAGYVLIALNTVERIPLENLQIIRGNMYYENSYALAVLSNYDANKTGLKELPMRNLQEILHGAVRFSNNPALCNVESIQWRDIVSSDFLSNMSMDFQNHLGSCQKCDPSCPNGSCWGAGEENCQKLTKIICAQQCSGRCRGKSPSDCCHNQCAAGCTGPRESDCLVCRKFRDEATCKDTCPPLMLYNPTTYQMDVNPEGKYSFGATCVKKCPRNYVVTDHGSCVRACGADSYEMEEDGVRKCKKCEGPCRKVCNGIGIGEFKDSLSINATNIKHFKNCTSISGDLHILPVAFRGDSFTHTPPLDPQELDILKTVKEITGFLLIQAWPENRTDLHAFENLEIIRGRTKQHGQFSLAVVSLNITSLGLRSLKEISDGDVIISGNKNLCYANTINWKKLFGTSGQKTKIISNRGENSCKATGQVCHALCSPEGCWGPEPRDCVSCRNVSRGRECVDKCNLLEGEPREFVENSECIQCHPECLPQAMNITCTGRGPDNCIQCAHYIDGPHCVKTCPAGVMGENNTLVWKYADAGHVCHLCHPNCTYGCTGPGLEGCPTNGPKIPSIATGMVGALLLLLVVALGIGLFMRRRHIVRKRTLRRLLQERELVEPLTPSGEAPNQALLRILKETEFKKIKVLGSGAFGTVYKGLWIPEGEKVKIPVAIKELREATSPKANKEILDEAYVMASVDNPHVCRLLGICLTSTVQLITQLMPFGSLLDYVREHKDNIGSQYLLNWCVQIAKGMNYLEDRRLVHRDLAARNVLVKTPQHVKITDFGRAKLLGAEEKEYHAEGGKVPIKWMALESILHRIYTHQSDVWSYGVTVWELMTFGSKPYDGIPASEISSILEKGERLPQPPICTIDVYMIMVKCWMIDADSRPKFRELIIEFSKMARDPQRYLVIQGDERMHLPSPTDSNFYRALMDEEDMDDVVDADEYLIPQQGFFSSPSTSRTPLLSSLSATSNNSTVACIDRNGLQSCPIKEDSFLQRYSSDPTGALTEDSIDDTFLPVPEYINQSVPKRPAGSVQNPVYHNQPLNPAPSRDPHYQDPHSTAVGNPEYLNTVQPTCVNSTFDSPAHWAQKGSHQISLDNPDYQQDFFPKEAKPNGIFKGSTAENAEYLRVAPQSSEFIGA
Description: Example A. Inhibitor Activity on EGFR-Dependent Cell Growth
Cell lines are generated by transducing Ba/F3 cells with retroviruses containing vectors with EGFR WT, EGFR L858R, EGFR exon 19del, EGFR L858R/C797S, EGFR exon 20 NPG Ins D770_N771, EGFR exon 20 ASV Ins V769_D770, EGFR exon 20 SVD Ins D770_N771, or EGFR exon 20 FQEA Ins A763_V764 genes and a puromycin selection marker. Transduced cells are selected with puromycin for 7 days and are then be transferred into culture media without Interleukin 3 (IL3). EGFR WT cells are maintained with supplemental EGF. Surviving cells are confirmed to express EGFR by Western blot and maintained as a pool. The IC50 date were included in Table 6 and Table 7.
(§2) 1.1 Cells are harvested from flask into cell culture medium and the cell number counted.
1.2 Cells are diluted with culture medium to the desired density and 40 μL of cell suspension is added into each well of 384-well cell culture plate and the seeding density is 800 (FQEA, exon 19del), 600 (WT, NPG, L858R/C797S), or 400 (ASV, SVD, L858R) cells/well.
(§3) 2 Compound Preparation and Treatment
(§4) 2.1 Test compounds are dissolved to 10 mM in a DMSO stock solution. 45 μL of stock solution is transferred to a 384 polypropylene plate (pp-plate). Perform 3-fold, 10-point dilution via transferring 15 μL compound into 30 μL DMSO using a TECAN (EVO200) liquid handler.
(§5) 2.2 Spin plates at room temperature at 1,000 RPM for 1 minute.
2.3 Transfer 120 nL of diluted compound from compound source plate into the cell plate.
2.4 After compound treatment for 72 hours, perform CTG detection for compound treatment plates as described in “Detection” section.
3.1 Plates are removed from incubators and equilibrated at room temperature for 15 minutes.
3.2 Thaw the CellTiter Glo reagents and allow to equilibrate to room temperature before the experiment.
3.3 Add 40 μL of CellTiter-Glo reagent into each well (at 1:1 to culture medium). Then place the plates at room temperature for 30 min followed by reading on EnVision.
4.1 Inhibition activity is calculated following the formula below:
% Inhibition=100×(LumHC−LumSample)/(LumHC−LumLC) • where HC is obtained from cells treated with 0.1% DMSO only; and LC is obtained from culture medium only.
4.2 2. Calculate the IC50 by fitting the Curve using Xlfit (v5.3.1.3), equation 201.
Y=Bottom+(Top−Bottom)/(1+10^((Log IC50−X)*HillSlope))

[4] = target: T1, EGFR L858R (Ba/F3 cells); test: Inhibitor activity on EGFR phosphorylation (pEGFR AlphaLISA, 2 h), Ba/F3 EGFR L858R
Description: (§6) Example B. Inhibitor Activity on EGFR phosphorylation (pEGFR)
(§7) EGFR mutant Ba/F3 cells were generated by transduction with retrovirus containing vectors expressing EGFR L858R, EGFR exon 19del, EGFR L858R/C797S, EGFR exon 20 NPG Ins D770_N771, EGFR exon 20 ASV Ins V769_D770, or EGFR exon 20 SVD Ins D770_N771 genes along with a puromycin selection marker. Transduced cells are selected with puromycin for 7 days and are then be transferred into culture media without Interleukin 3 (IL3). Surviving cells are confirmed to express EGFR by Western blot and maintained as a pool. CUTO14 cells were obtained from Dr. Robert C. Doebele at the University of Colorado. The IC50 date are included in Table 6 and Table 7.
as §2
(§8) 1.2 Cells are diluted with culture medium to the desired density and 40 μL of cell suspension is added into each well of 384-well cell culture plate and the seeding density is 50K cells/well (Ba/F3) or 12.5K cells/well (CUTO14).
as §3, §4, §5
(§9) 2.3 Transfer 5 nL of diluted compound from compound source plate into the cell plate.
(§10) 2.4 After compound treatment for 2 hours, perform pEGFR detection by AlphaLISA for compound treatment plates as described in “Detection” section.
(§11) 3 Detection by pEGFR AlphaLISA (Perkin-Elmer)
(§12) 3.1 Plates are removed from incubators and equilibrated at room temperature for 10 minutes, and media was removed
(§13) 3.2 10 μL of lysis buffer is added and plates shaken at 600 rpm for 1 hr.
(§14) 3.3 Prepare acceptor mix just before use and dispense 5 μL of acceptor mix to all the wells. Shake 350 rpm for Ihr in the dark
(§15) 3.4 Prepare donor mix under low light conditions prior to use. Dispense 5 μL of donor mix to all the wells. Mix well on the shaker, seal and wrap in aluminum foil and incubate 1.5 hrs at room temperature in the dark
(§16) 3.5 Transfer 18.5 μL mixture to OptiPlate 384, and read using an Envision. The IC50 date were included in Table 6 and Table 7.

[5] = target: T2, EGFR exon 19del (Ba/F3 cells); test: Inhibitor activity on EGFR phosphorylation (pEGFR AlphaLISA, 2 h), Ba/F3 EGFR exon 19del; conditions: read-out: Del19 IC50 (pEGFR)
Description: as §6, §7, §2, §8, §3, §4, §5, §9, §10, §11, §12, §13, §14, §15, §16

[6] = target: T3, EGFR L858R/C797S (Ba/F3 cells); test: Inhibitor activity on EGFR phosphorylation (pEGFR AlphaLISA, 2 h), Ba/F3 EGFR L858R/C797S
Description: as §6, §7, §2, §8, §3, §4, §5, §9, §10, §11, §12, §13, §14, §15, §16

[7] = target: T4, EGFR WT (Ba/F3 cells) (Homo sapiens, UniProt P00533); test: Inhibitor activity on EGFR-dependent cell growth (CellTiter-Glo, 72 h), Ba/F3 EGFR WT; conditions: read-out: BaF3 WT IC50
T4 construct: expressed in transfected cells; host or cells: Ba/F3 (murine pro-B cells), retroviral transduction, puromycin selection, maintained with EGF
Summary of the method: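 This growth assay used Ba/F3 cells that depend on wild-type EGFR and are kept in EGF without IL3. Compounds were made up as 10 mM DMSO stocks and diluted 3-fold over 10 points. 120 nL went onto 600 cells/well. After 72 hours, 40 μL CellTiter-Glo was added and luminescence read on EnVision after 30 min.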

[8] = target: T5, EGFR exon 20 NPG Ins D770_N771 (Ba/F3 cells) (Homo sapiens, UniProt P00533, INS770NPG); test: Inhibitor activity on EGFR-dependent cell growth (CellTiter-Glo, 72 h), Ba/F3 EGFR exon 20 NPG Ins; conditions: read-out: BaF3 NPG IC50
T5 construct: expressed in transfected cells; host or cells: Ba/F3 (murine pro-B cells), retroviral transduction, puromycin selection, IL3-independent pool
T5 sequence (P00533 with tags, fused parts or gaps INS770NPG): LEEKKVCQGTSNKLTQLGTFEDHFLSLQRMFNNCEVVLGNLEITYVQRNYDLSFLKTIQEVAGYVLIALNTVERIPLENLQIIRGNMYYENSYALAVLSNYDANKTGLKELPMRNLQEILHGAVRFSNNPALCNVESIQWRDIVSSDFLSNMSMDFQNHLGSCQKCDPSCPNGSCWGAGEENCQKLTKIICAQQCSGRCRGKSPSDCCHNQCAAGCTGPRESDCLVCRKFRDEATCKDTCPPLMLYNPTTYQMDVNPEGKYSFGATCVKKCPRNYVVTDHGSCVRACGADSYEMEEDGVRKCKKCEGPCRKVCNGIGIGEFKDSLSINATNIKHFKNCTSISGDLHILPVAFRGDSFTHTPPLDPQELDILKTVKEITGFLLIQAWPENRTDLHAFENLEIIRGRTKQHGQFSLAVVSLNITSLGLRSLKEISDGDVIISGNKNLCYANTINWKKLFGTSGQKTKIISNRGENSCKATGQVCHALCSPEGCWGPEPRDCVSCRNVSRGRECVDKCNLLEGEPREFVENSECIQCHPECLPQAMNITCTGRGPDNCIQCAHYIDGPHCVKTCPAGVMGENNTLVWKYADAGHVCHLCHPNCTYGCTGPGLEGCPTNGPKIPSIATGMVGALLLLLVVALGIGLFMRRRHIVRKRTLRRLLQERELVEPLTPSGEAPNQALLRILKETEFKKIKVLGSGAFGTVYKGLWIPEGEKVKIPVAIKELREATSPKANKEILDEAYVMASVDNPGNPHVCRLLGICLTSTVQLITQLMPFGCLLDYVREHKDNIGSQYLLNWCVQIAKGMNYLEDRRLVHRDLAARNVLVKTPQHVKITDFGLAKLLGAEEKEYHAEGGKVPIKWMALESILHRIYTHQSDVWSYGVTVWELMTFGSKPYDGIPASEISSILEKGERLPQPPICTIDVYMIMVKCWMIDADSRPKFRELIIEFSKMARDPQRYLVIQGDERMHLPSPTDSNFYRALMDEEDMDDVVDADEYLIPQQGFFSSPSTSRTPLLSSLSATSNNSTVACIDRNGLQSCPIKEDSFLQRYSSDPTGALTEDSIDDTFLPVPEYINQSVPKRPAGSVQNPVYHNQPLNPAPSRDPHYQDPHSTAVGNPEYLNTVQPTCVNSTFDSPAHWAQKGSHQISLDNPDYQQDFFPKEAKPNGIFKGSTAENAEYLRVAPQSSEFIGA
Summary of the method: (§17)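 IC50s derive from a sigmoidal dose–response fit of CellTiter-Glo signal. The signal was normalised between […]-treated cells and cell-free medium. Ba/F3 mutant-EGFR cells, seeded at 400–800/well depending on the line, had 72 h of exposure to a 10-point, 3-fold compound series.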

[9] = target: T6, EGFR exon 20 ASV Ins V769_D770 (Ba/F3 cells) (Homo sapiens, UniProt P00533, INS769ASV); test: Inhibitor activity on EGFR-dependent cell growth (CellTiter-Glo, 72 h), Ba/F3 EGFR exon 20 ASV Ins; conditions: read-out: BaF3 ASV IC50
T6 construct: expressed in transfected cells; host or cells: Ba/F3 (murine pro-B cells), retroviral transduction, puromycin selection, IL3-independent pool
Summary of the method: as §17

[10] = target: T7, EGFR exon 20 SVD Ins D770_N771 (Ba/F3 cells) (Homo sapiens, UniProt P00533, INS770SVD); test: Inhibitor activity on EGFR-dependent cell growth (CellTiter-Glo, 72 h), Ba/F3 EGFR exon 20 SVD Ins; conditions: read-out: BaF3 SVD IC50
T7 construct: expressed in transfected cells; host or cells: Ba/F3 (murine pro-B cells), retroviral transduction, puromycin selection, IL3-independent pool
Summary of the method: as §17

[11] = target: T8, EGFR exon 20 FQEA Ins A763_V764 (Ba/F3 cells) (Homo sapiens, UniProt P00533, INS763FQEA); test: Inhibitor activity on EGFR-dependent cell growth (CellTiter-Glo, 72 h), Ba/F3 EGFR exon 20 FQEA Ins; conditions: read-out: BaF3 FQEA IC50
T8 construct: expressed in transfected cells; host or cells: Ba/F3 (murine pro-B cells), retroviral transduction, puromycin selection, IL3-independent pool
T8 sequence (P00533 with tags, fused parts or gaps INS763FQEA): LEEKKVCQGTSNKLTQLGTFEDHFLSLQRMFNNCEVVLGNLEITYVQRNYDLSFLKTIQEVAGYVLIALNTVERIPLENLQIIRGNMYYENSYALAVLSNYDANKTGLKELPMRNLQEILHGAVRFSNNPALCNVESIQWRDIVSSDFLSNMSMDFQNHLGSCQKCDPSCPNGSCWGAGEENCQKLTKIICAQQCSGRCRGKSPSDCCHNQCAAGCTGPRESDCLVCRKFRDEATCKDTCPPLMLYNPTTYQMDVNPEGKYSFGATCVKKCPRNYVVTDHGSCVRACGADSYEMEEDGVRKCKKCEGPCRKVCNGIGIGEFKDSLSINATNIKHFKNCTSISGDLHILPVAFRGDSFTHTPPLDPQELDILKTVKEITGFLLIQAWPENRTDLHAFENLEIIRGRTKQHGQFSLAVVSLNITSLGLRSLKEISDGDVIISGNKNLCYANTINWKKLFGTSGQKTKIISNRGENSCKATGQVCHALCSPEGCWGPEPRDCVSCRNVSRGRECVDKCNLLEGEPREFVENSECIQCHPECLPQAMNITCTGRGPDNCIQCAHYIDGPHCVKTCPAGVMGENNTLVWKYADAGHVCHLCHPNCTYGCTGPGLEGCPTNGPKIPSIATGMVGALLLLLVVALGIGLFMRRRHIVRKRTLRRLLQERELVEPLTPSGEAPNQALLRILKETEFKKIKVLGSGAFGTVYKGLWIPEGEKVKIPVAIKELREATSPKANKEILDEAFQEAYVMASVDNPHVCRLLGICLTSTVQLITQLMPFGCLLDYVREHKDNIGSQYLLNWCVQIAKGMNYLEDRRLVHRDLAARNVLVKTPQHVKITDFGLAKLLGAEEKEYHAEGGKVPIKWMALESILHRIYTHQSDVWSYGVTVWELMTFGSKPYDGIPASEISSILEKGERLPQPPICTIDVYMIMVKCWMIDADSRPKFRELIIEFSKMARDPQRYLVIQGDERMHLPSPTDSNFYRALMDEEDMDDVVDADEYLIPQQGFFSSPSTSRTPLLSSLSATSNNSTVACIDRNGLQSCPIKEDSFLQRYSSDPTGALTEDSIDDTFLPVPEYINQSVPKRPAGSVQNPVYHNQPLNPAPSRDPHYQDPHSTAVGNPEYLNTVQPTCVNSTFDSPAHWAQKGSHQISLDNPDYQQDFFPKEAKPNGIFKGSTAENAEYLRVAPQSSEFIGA
Summary of the method: as §1

[12] = target: EGFR (CUTO14 cells) (Homo sapiens, UniProt P00533); test: Inhibitor activity on EGFR phosphorylation (pEGFR AlphaLISA, 2 h), CUTO14 cells
Summary of the method: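 After a 2-hour exposure to compound (3-fold, 10-point series from 10 mM DMSO stock), cell lysates were assayed for pEGFR by AlphaLISA. Cells were retrovirally engineered, IL3-independent Ba/F3 lines expressing each EGFR mutant at 50K/well, or CUTO14 cells at 12.5K/well, giving IC50 values.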

IC50 [1] [nM] | IC50 [2] [nM] | IC50 [3] [nM] | IC50 [4] [nM] | IC50 [5] [nM] | IC50 [6] [nM] | IC50 [7] [nM] | IC50 [8] [nM] | IC50 [9] [nM] | IC50 [10] [nM] | IC50 [11] [nM] | IC50 [12] [nM] | Compound
< 100 | < 100 | < 100 | < 100 | < 100 | < 100 | < 100 | < 100 | < 100 | < 100 | < 100 |  | COc1c(Cl)cccc1Nc1c(-c2ccnc3ccc(OC4(C)COC4)nc23)[nH]c2c1C(=O)NCC2 [Compound 787, 3-[(3-chloro-2-methoxyphenyl)amino]-2-[6-[(3-methyloxetan-3-yl)oxy]-1,5-naphthyridin-4-yl]-1H,5H,6H,7H-pyrrolo[3,2-c] pyridin-4-one]
< 100 | < 100 | < 100 | < 100 | < 100 | < 100 | < 100 | < 100 | < 100 | < 100 | < 100 |  | CCOc1ncc2nccc(-c3[nH]c4c(c3Nc3cccc(Cl)c3OC)C(=O)NCC4)c2n1 [compound 827, 3-[(3-chloro-2-methoxyphenyl)amino]-2-{2-ethoxypyrido[3,2-d]pyrimidin-8-yl}-1H,5H,6H,7H-pyrrolo[3,2-c]pyridin-4-one]
< 100 | < 100 | < 100 | < 100 | < 100 | < 100 | 100 to 1000 | < 100 |  |  |  | < 100 | COc1c(Cl)cccc1Nc1c(-c2ccncn2)[nH]c2c1C(=O)NCC2C[C@H]1COCCO1 (single isomer, unassigned) [Compound 527, (7R*)-3-[(3-chloro-2-methoxyphenyl)amino]-7-[(2S)-1,4-dioxan-2-ylmethyl]-2-(pyrimidin-4-yl)-1H,5H,6H,7H-pyrrolo[3,2-c]pyridin-4-one]
< 100 | < 100 | < 100 | < 100 | < 100 | < 100 | 100 to 1000 | < 100 | < 100 | < 100 | < 100 |  | COc1c(Cl)cccc1Nc1c(-c2ccncc2F)[nH]c2c1C(=O)NC[C@]21CCN(CC(F)F)C1 [compound 821]
